Source: US20100261682A1, “Method and Means for the Treatment of Cachexia” (Bioneris AB, priority 2007, published 2010)

Tests used:
mTOR = assay: Western blot of gastrocnemius muscle: phosphorylated (Ser2448) mTOR; assay type: in vivo, NMRI mice; settings: 40 mg/kg; after 4 days treatment
Procedure: (§1) Administration of alpha-trinositol. Mice (n=6) bearing the MAC16 tumour were treated with AT (40 mg/kg) s.c., 3 times per day, for 5 days, while a control group received PBS. Protein synthesis and degradation were determined by the incorporation and release of L-[2,6-^3H]phenylalanine, as described in Smith et al., Cancer Res., 2005; 65:277-83. On the fourth day of treatment half of the group administered 0.4 mmol/L L-[2,6-^3H]phenylalanine in PBS (100 μl) by i.p. administration.
(§2) Western blot analysis Gastrocnemius muscle (10 mg) was homogenised in Phosphosafe™ Extraction Reagent (500 μl) and centrifuged at 15000 g for 15 min. Samples of the cytosolic proteins (5 μg) were loaded on either a 10% (mTOR, myosin, eIF4E and eIF4G) 12% (PKR, eIF2α and actin) or 15% (4E-BP1) sodium dodecylsulphate-polyacrylamide gel (SDS-PAGE) and electrophoresed at 180 V for approximately 1 h. The extent of phosphorylation of 4E-BP1, and the association of 4E-BP1 and eIF4G with eIF4E was determined by Western blotting when eIF4E was extracted from the muscle samples by m^7GTP-Sepharose 4B-affinity binding, as previously described Eley ey al., Biochem J., 2007; 407:113-20, by loading 20 μg of protein. […] Blots were scanned by a densitometer to quantify differences.

myosin = assay: Western blot of gastrocnemius muscle: myosin; assay type: in vivo, NMRI mice; settings: 40 mg/kg; treatment for 4 days; reduced by 90% in untreated tumour-bearing mice
Procedure: as §1, §2

p42 = assay: Western blot of gastrocnemius muscle: p42; assay type: in vivo, NMRI mice; settings: 40 mg/kg s.c., 3 times per day
Procedure: as §1, §2

[1] = test system: MAC16 tumour-bearing mice; assay: Body weight and gastrocnemius muscle weight in MAC16 tumour-bearing mice (Example 4); assay type: in vivo, NMRI mice; settings: 40 mg/kg s.c., 3 times per day, 5 days
eIF4G.eIF4E complex = assay: Western blot after m7GTP-Sepharose extraction: active eIF4G.eIF4E complex; assay type: in vivo, NMRI mice; settings: 40 mg/kg
Procedure: as §1, §2

[2] = test system: PIF (proteolysis inducing factor) induced protein degradation in murine myotubes; assay: PIF-induced protein degradation in murine myotubes; assay type: cell-based; settings: AT 100 μM, 2 h prior to addition of PIF
Procedure: (§3) To investigate the mechanism by which AT protects lean body mass in cachexia, further experiments were carried out in vitro using murine myotubes as a surrogate model of skeletal muscle. Incubation with either PIF or angiotensin II (Ang II) induced protein degradation with a characteristic bell-shaped dose-response curve as previously reported (Smith et al., 2004, Br. J. Cancer, and Tisdale et al., 2006, Cell. Sig) with the maximal effect of PIF at 4.2 nM and Ang II at 0.5 μM (FIGS. 5 and 8).

[3] = test system: 4E-BP1 associated with eIF4E; assay: Western blot after m7GTP-Sepharose extraction: 4E-BP1 associated with eIF4E; assay type: in vivo, NMRI mice; settings: 40 mg/kg
Procedure: as §1, §2

eIF2α = assay: Western blot of gastrocnemius muscle: phospho eIF2α/total eIF2α; assay type: in vivo, NMRI mice; settings: 40 mg/kg; tumour-bearing animals
Procedure: as §1, §2

[4] = test system: Ang II induced protein degradation in murine myotubes; assay: Ang II-induced protein degradation in murine myotubes; assay type: cell-based; settings: AT 100 μM, 2 h prior to addition of Ang II
Procedure: as §3

20S proteasome = 20S proteasome 'chymotrypsin-like' enzyme activity in gastrocnemius muscle; assay type: in vivo, NMRI mice; settings: 40 mg/kg s.c., 3 times per day; after 4 days treatment
Procedure: as §1
Determination of proteasome activity The activity of the 20S proteasome was determined as the ‘chymotrypsin-like’ enzyme activity, the predominant proteolytic activity of the β5 subunits of the proteasome. Gastrocnemius muscles were rinsed with ice-cold PBS and homogenised in 20 mmol/L Tris-HCl (pH 7.5), 2 mmol/L ATP, 5 mmol/L MgCl2 and 1 mmol/L DTT followed by sonication. The sonicate was centrifuged for 10 minutes at 18,000×g at 4° C., and enzyme activity in the supernatant was determined by the method of Orino et al., FEBS Lett., 1991; 284:206-10, by determining the release of amino methyl coumarin (AMC) from the fluorogenic substrate LLVY-AMC. Activity was measured in the absence and presence of the specific proteasome inhibitor lactacystin (10 mmoles/L). Only lactacystin suppressible activity was considered to be proteasome specific.

[5] = test system: PIF-induced chymotrypsin-like enzyme activity (proteasome) in C2C12 myotubes; assay: PIF-induced chymotrypsin-like enzyme activity in C2C12 myotubes; assay type: cell-based, murine; settings: AT 100 μM, 4.2 nM PIF
From the text: Protein degradation induced by PIF is mediated through up-regulation of the ubiquitin-proteasome pathway (Tisdale et al., 2004, Br. J. Cancer). […] A hexanoyl ester of AT (lipid soluble AT) has been produced as a slow release form, after hydrolysis by esterase.

PKR = assay: Western blot of gastrocnemius muscle: phospho PKR/total PKR; assay type: in vivo, NMRI mice; settings: 40 mg/kg; tumour-bearing animals
Procedure: as §1, §2

caspase 3 = assay: Caspase 3 activity in gastrocnemius muscle; assay type: in vivo, NMRI mice; settings: 40 mg/kg; still significantly higher than in non-tumour-bearing animals
Procedure: as §1
Determination of Caspase activity. The activity of caspase 3 was determined by the release of 7-amino-4-methylcoumarin (AMC) from the specific substrate AcDEVD-AMC in the presence or absence of the caspase 3 inhibitor AcDEVD-CHO. […] The supernatant (50 μg protein) was incubated with the caspase 3 substrate for 1 h and the increase in fluorescence due to AMC was determined at an excilation wavelength of 370 nm and an emission wavelength of 430 nm. […] The increase in fluorescence due to the release of 7-amino-4-trifluoro-methylcoumarin (AFC) was measured with an excitation wavelength of 400 nm and an emission of 505 nm.

Question: `O=P(O)(O)O[C@@H]1[C@H](OP(=O)(O)O)[C@H](O)[C@@H](O)[C@H](O)[C@H]1OP(=O)(O)O` [alpha-trinositol, 1-D-Myo-inositol 1,2,6-triphosphate] was tested. Which “level of the phosphorylated (Ser2448) form of mTOR in gastrocnemius muscle” value (mTOR) did it give?
Answer: completely reversed up to the values found in non tumour-bearing animals

Question: And the “myosin expression in gastrocnemius muscle” value (myosin)?
Answer: returned to values at the same level as in non-tumour animals

Question: And the “expression of p42 in gastrocnemius muscle” value (p42)?
Answer: down-regulates

Question: What about the “gastrocnemius muscle weight compared to the control” value [1] of the same molecule?
Answer: significantly higher

Question: And the “weight loss compared to the control group” value [1]?
Answer: significantly lower

Question: What about the “tumour-induced decrease in formation of the active eIF4G.eIF4E complex” value (eIF4G.eIF4E complex) of the same molecule?
Answer: completely attenuated

Question: What about the “effect on PIF-induced protein degradation” value [2] of the same molecule?
Answer: completely attenuated protein degradation down to basal levels

Question: And the “tumour-induced increase of 4E-BP1 associated with eIF4E” value [3]?
Answer: completely attenuated

Question: What about the “expression of phospho eIF2α (ratio to total eIF2α)” value (eIF2α) of the same molecule?
Answer: significant decrease

Question: What about the “effect on Ang II-induced protein degradation” value [4] of the same molecule?
Answer: completely attenuated protein degradation down to basal levels

Question: What about the “chymotrypsin activity (20S proteasome activity) in gastrocnemius muscle” value (20S proteasome) of the same molecule?
Answer: reduced down to levels found in normal non-tumour bearing mice

Question: What about the “effect on PIF-induced chymotrypsin-like enzyme activity” value [5] of the same molecule?
Answer: completely attenuated

Question: What about the “expression of phospho PKR (ratio phosphoPKR/total PKR)” value (PKR) of the same molecule?
Answer: significant decrease

Question: What about the “activity of caspase-3 in gastrocnemius muscle” value (caspase 3) of the same molecule?
Answer: significantly reduced
